Laboratory results published in paper PMC3509626, “Antifungal Activity of (KW)n or (RW)n Peptide against Fusarium solani and Fusarium oxysporum” (International Journal of Molecular Sciences, 2012).
Like-named read-outs stand apart in the source and are kept apart here. Ends that are not written are not given here.

What was measured:
Assay type in all cases: cell-based
[1] = test system: Fusarium oxysporum (KCTC 6076); conditions: KCTC 6076, 3 h
Procedure: (§1) Rink amide 4-methylbenzhydrylamine resin, fluoren-9-ylmethoxycarbonyl (Fmoc) amino acids, and other reagents for peptide synthesis were purchased from Calibiochem-Novabiochem (La Jolla, CA, USA). For the quantitative antifungal assay and fungicidal activity assay, the following fungal strains were obtained from the Korea Collection for Type Cultures (KCTC): F. solani (KCTC 6326) and F. oxysporum (KCTC 6076). Fungal cells were grown on PDA (potato dextrose agar) plate and subcultured for 2–3 weeks.
(§2) The spore suspension at a concentration of 5 × 10^4 spores/mL (80 μL) was transferred to a 96-well microtiter plate along with 20 μL of (KW)n or (RW)n peptides (n = 3, 4, and 5), melittin, or media to give final peptide concentrations of 4–32 μM. Plates were incubated for 3 h before the addition of 10 μL of 3-(4,5-dimethylthiazol-2-yl)-2,5-diphenyltetrazolium bromide (MTT; 5 mg/mL; Sigma). Plates were then incubated again for 16 h at room temperature, followed by the addition of 100 μL of MTT solvent (0.1 N HCl in anhydrous isopropyl alcohol). Presence of MTT/formazan was monitored spectrophotometrically by measuring the absorbance at 570 nm and then subtracting the background absorbance at 690 nm using a Versa-Max microplate Elisa reader (Molecular Devices, Sunnyvale, CA, USA). Each measurement was conducted in triplicate.

[2] = test system: Fusarium solani (KCTC 6326); conditions: KCTC 6326, 3 h
Procedure: as §1, §2

[3] = test system: Fusarium solani (KCTC 6326); conditions: for concentration at which antifungal effects were exhibited (below MIC): KCTC 6326, 24 h; for growth inhibition (conidial germination and hyphal growth): F. solani, peptide at 64 μM, 24 h, 25 °C
Procedure: as §1
(§3) Fungal fragments, precultured in mycelial growth medium, were placed in the center of PDA plates, after which the cultures were incubated for 96 h at 25 °C in the dark. After incubation, spores were isolated from cultures growing in half-strength PDA. Spore concentrations were then adjusted to 5 × 10^4 spores/mL in half-strength PDA, after which 80 μL was added to the wells of sterile 96-well flat-bottomed microtiter plates along with 20 μL of peptide or media to give final concentrations of 1–64 μM. Several wells were kept untreated as a control to monitor fungal growth. Plates were incubated in the dark at 25 °C for 24 h before hyphal growth was determined by measuring optical density at 595 nm using a microtiter plate Elisa reader (Molecular Devices, Sunnyvale, CA, USA). Each test was performed in triplicate. Percentages of inhibition were then calculated (Figure 1) (0% inhibition indicates growth equal to control sample (only media)). The lowest concentration of peptide inhibiting fungal growth was monitored microscopically with an inverted light microscope (IX71, Olympus, Tokyo, Japan).

[4] = test system: Fusarium oxysporum (KCTC 6076); conditions: F. oxysporum, peptide at 64 μM, 24 h, 25 °C
Procedure: as §1, §3

Question: With `N=C(N)NCCC[C@H](NC(=O)[C@H](Cc1c[nH]c2ccccc12)NC(=O)[C@H](CCCNC(=N)N)NC(=O)[C@H](Cc1c[nH]c2ccccc12)NC(=O)[C@H](CCCNC(=N)N)NC(=O)[C@H](Cc1c[nH]c2ccccc12)NC(=O)[C@H](CCCNC(=N)N)NC(=O)[C@H](Cc1c[nH]c2ccccc12)NC(=O)[C@@H](N)CCCNC(=N)N)C(=O)N[C@@H](Cc1c[nH]c2ccccc12)C(N)=O` [(RW)5, RWRWRWRWRW-NH2] as the compound, how does the cells killed [1] read?
Answer: The cells killed was 79%.

Question: And the cells killed [2]?
Answer: Its cells killed is 75%.

Question: RWRWRWRW-NH2 [(RW)4, RWRWRWRW-NH2] was tested. Which “concentration at which antifungal effects were exhibited (below MIC)” value [3] did it give?
Answer: Its value is 4 µM.

Question: What about the cells killed [1] of the same compound?
Answer: The cells killed was 76%.

Question: What about the cells killed [2] of the same compound?
Answer: The cells killed was 69%.

Question: Which “growth inhibition (conidial germination and hyphal growth)” value (from here on “growth inhibition”) [4] does the source give for “RWRW-NH2 [(RW)2, tetrameric Arg-Trp repeat peptide amide]” here?
Answer: Its value is “did not inhibit growth”.

Question: What about the “growth inhibition” value ([4]; listed as (RW)2-NH2) of the same compound?
Answer: The value was “non-inhibition”.

Question: And the “growth inhibition” value [3]?
Answer: Its value is “did not inhibit growth”.

Question: What about the “growth inhibition” value ([3]; listed as (RW)2-NH2) of the same compound?
Answer: The value was “non-inhibition”.

Question: Which results are given for KWKWKWKWKW-NH2 [(KW)5, KWKWKWKWKW-NH2]?
Answer: cells killed [1]: 76%; cells killed [2]: 72%

Question: For KWKWKWKW-NH2 [(KW)4, KWKWKWKW-NH2], which “concentration at which antifungal effects were exhibited (below MIC)” value [3] is on record?
Answer: Its value is 4 µM.

Question: What about the cells killed [1] of the same compound?
Answer: The cells killed was 74%.

Question: What about the cells killed [2] of the same compound?
Answer: The cells killed was 68%.

Question: How did the “growth inhibition” value [4] turn out when “KWKW-NH2 [(KW)2, tetrameric Lys-Trp repeat peptide amide]” was run?
Answer: The value was “did not inhibit growth”.

Question: What about the “growth inhibition” value ([4]; listed as (KW)2-NH2) of the same compound?
Answer: Its value is “non-inhibition”.

Question: What about the “growth inhibition” value [3] of the same compound?
Answer: The value was “did not inhibit growth”.

Question: What about the “growth inhibition” value ([3]; listed as (KW)2-NH2) of the same compound?
Answer: The value was “non-inhibition”.
